{"source": "patent US20240091328A1", "about": "“FORMULATIONS AND METHODS FOR MHC-I RESTRICTED EPITOPE IMMUNIZATION” (The Research Foundation for The State University of New York, priority 2021, published 2024)", "key": {"[1]": {"test_system": "RENCA cells", "assay": "Cell lysis by splenocyte effector cells, LDH release, RENCA targets", "type": "cell-based, mouse", "settings": "single peptide vaccine", "description": "FIG. 20. […] BALB/c mice were immunized with CPQ/peptide vaccine on day 0 & 7, then inoculated with RENCA cells subcutaneously on day 14. (A) Tumor sizes of mice vaccinated with CPQ admixed with indicated peptide 18 days post tumor inoculation. Splenocytes were prepared 18 days post tumor inoculation and cultured in vitro for 5 days then stimulated with antigens and served as Effector cells (E), tumor cells were target cells (T). Effector cells were incubated with target cells for 5 hours, then specific lysis was analyzed by the nonradioactive LDH release assay by following the manufacturer's instructions. Percent cell lysis of RENCA cells (B) and percent cell lysis of irrelevant TC-1 cells (C). Error bars show mean+/−std. dev. for n=5 independent experiments.\nFor Cytotoxic T lymphocyte (CTL) cytotoxicity assay, isolated splenocytes were cultured in the cell culture medium and stimulated by mouse IL-2 (Pepro tech; catalog: 212-12; 10 IU/mL) and antigens (10 μg/mL) for 5 days to use as the effector cells. 5000 CT26 cells were seeded in a 96 wells plate and pulsed with 10 μg/mL antigens for 1 hour, then splenocytes were added to the plate at different E:T ratios for 5 hours. The cytotoxicity of splenocytes on tumor cells was assessed by lactate dehydrogenase (LDH) release using Non-Radioactive Cytotoxicity Assay Kit (Promega; catalog: G1780) according to manufacturer instructions."}, "[2]": {"test_system": "IFN-γ and TNF-α producing CD8^+ T cells", "assay": "Intracellular IFN-γ / TNF-α staining of splenocytes after antigen re-stimulation", "type": "in vivo, BALB/c mice", "settings": "mice vaccinated with CPQ and 20 RENCA peptides", "description": "For Intracellular staining: 100 μL of 1×10^6 splenocytes were seeded in a flat bottom 96 wells plate and stimulated with 10 μg/mL antigen for 15-18 hours in the cell culture incubator. Then Brefeldin A was added to the plates with a dilution of 1000× for another 5 hours. Cells were transferred to a round bottom 96 wells plate and centrifuged at 1350 rpm for 3 mins, the cell pellets were washed twice and stained with 500× live/dead fixable dye, 200× diluted APC anti-mouse CD8, 200× diluted FITC anti-mouse CD4, 200× diluted PE/Cy7 anti-mouse CD62L and 200× diluted PerCP/Cy5.5 […] 25 min at 4° C. with shaking. Cells were washed twice and fixed and permeabilized by fixation/permeabilization buffer for 20 min at 4° C. Cells were washed twice with perm wash buffer and stained with 200× diluted pacific blue anti-mouse IFN-γ and 200× diluted PE anti-mouse TNF-α for 30 min on ice. Cells were washed twice by perm/wash buffer for flow cytometry."}, "[3]": {"test_system": "RENCA cells", "assay": "Prophylactic vaccine tumor model, subcutaneous RENCA challenge", "type": "in vivo, BALB/c mice", "settings": "single peptide with CoPoP liposome, days 0 and 7, RENCA day 14", "description": "Multivalent vaccine was prepared by first incubate all 20 peptides with CPQ and 2HPQ liposome for a hour at room temperature with a mass ratio of 1:4. The binding percentage of peptides was assessed by peptide filtration assay. […] There was no significant change of sizes of liposome before or after binding, which were around 100 nm (FIG. 19B). The polydispersity index of liposomes is smaller than 0.25 (FIG. 19C). Mice were vaccinated with CPQ/peptides on day0 & 7, the injection dose is 50 ng per peptide and lug total peptide per mouse. Mice were then challenged with RENCA cells subcutaneously on day14.\nTo confirm which peptide was responsible to the anti-tumor efficacy of the vaccine, we admixed single peptide with CoPoP liposome as a vaccine to inject BALB/c mice. These 20 vaccines were injected to 20 groups of BALB/c mice on day 0 & 7, RENCA cells were inoculated on day14.\n(§1) Tumor challenge: For the prophylactic vaccine tumor model, mice were vaccinated on day 0 and 7, and challenged on day 14. For testing the long-term protection of vaccine, mice were challenged on day 80. […] Tumor growth was monitored three times a week and tumor sizes were calculated by equation: Tumor volume=length×width^2/2. […] Tumor nodules were counted manually and lung weights were measured."}, "[4]": {"test_system": "RAW264.7 murine macrophage cells", "assay": "In vitro cell uptake of A5-HiLyte488, macrophages", "type": "cell-based, mouse", "settings": "cells pre-incubated with inhibitor 10 μg/mL for an hour, CPQ/A5", "description": "For in vitro cell uptake studies, RAW264.7 cells (2.5×10^5 per well) and BMDCs (2.5×10^5 per well) were cultured in a 24-well plates overnight, then treated with CPQ/A5-HiLyte488, 2HPQ/A5-HiLyte488 and PBS/A5-HiLyte488 (peptide concentration of 1 μg/mL) for 10 min, 30 min or an hour. For phagocytosis and endocytosis inhibitor study, cells were first pre-incubated with cytochalasin B (10 μg/ml) or chlorpromazine (10 μg/mL) for an hour before the cell uptake study. Cells were washed and lysed with 0.1% Triton X-100 and 10 mM dithiothreitol (DTT). The fluorescence signals were measured before and after adding DTT. Cellular A5-HiLyte488 uptakes were calculated by preparing an A5-HiLyte488 standard curve."}, "[5]": {"test_system": "CT26 cells", "assay": "Experimental lung metastasis tumor model, CT26", "type": "in vivo, BALB/c mice", "settings": "1000 ng (total) peptides with CPQ, 1 and 8 days after i.v. CT26", "description": "Tumor challenge: For the prophylactic vaccine tumor model, mice were vaccinated on day 0 and 7, and challenged on day 14. For testing the long-term protection of vaccine, mice were challenged on day 80. For the therapeutic vaccine tumor model, mice were inoculated with tumor cells subcutaneously on day 0, and then vaccinated with indicated vaccine on days 5 and 12. Tumor growth was monitored three times a week and tumor sizes were calculated by equation: Tumor volume=length×width^2/2. Animals were euthanized when the tumor sizes reached 1 cm in diameter or when animals developed an ulceration. For the experimental lung metastasis tumor model, animals were injected intravenously via tail vein with tumor cells on day 0, then were left untreated or treated with intramuscular injection with the indicated vaccines on day 2 and 9 for the A5 vaccine studies or day 1 and 8 for the RragcL385P, Tmem5S71N or EML5G44R peptide screening studies. Lungs were excised and stained with Bouin's solution (Sigma Catalog: HT10132) on day 18 for mice injected with CT26 cells and on day 16 for mice injected with 4T1 cells. Tumor nodules were counted manually and lung weights were measured."}, "[6]": {"test_system": "IFN-γ producing CD8^+ T cells", "assay": "Intracellular IFN-γ in CD8+ T cells of re-stimulated PBMCs", "type": "in vivo, C57BL/6 mice", "settings": "multivalent E6/E7 vaccine, 100 ng each peptide", "description": "The E6 and E7 genes of TC-1 cells were sequenced from extracted DNA using Sanger sequencing. Six predicted H-2K^b- and H-2D^b-restricted epitopes within the top percentile of MHC-I binders were identified using a neural network simulation algorithm. […] These 6 peptides were combined with CPQ to form a single multivalent vaccine for mice and the immunogenicity of each peptide were assessed by Interferon gamma (IFN-γ production after individual peptide stimulation of collected peripheral blood mononuclear cells (PBMCs). Mice were then challenged with TC-1 cells subcutaneously to assess the tumor protection of the vaccine (FIG. 21A).\nCollected PBMCs were re-stimulated with the epitope candidates that comprised the multivalent vaccine after which CD8^+ T cells were assessed for intracellular IFN-γ production, indicating the induction of Ag-specific CD8^+ T cells. […] When PBMCs from mice injected with the non-particle forming 2HPQ/peptides were re-stimulated with the peptides, none induced IFN-γ producing CD8^+ T cells (FIG. 21E)."}, "[7]": {"test_system": "TC-1 cells", "assay": "Prophylactic vaccine tumor model, subcutaneous TC-1 challenge", "type": "in vivo, C57BL/6 mice", "settings": "days 0 and 7, challenge day 14", "source_text": "To determine immunogenicity, C57BL/6 mice were then vaccinated intramuscularly with the multivalent vaccine on days 0 & 7, and peripheral blood mononuclear cells (PBMCs) were collected and mice challenged with TC-1 tumor cells on day 14. […] Thus, the presentation of the peptides in the form of a particle, even with identical amounts of QS-21 and MPLA, appeared to be important for inducing memory CD8^+ T cells.\nNext, to determine which of the peptide epitopes provided anti-tumor activity, peptides were admixed individually with CPQ or 2HIPQ liposomes (FIG. 22A). Individually, all of the peptides effectively bound to CPQ liposomes, but not to 2HIPQ liposomes lacking cobalt (FIG. 22B). Liposome size remained ˜100 nm after binding with E6 and E7 peptides (FIG. 22C). Next, mice were vaccinated with the peptides admixed with CPQ on days 0 & 7 at a peptide dose of 500 ng. Each mouse was then challenged with TC-1 cells on day 14. […]\nas §1, with “14.” for “14. For testing the long-term protection of vaccine, mice were challenged on day 80.”"}, "[8]": {"test_system": "IFN-γ", "assay": "In vivo peptide micro-library screening, IFN-γ ELISA of re-stimulated splenocytes relative to A5", "set-up": "species or system mice", "settings": "rank among 100 micro-library peptides; IFN-γ on re-stimulation relative to A5; 5 peptides plus A5 with CPQ", "description": "Mice were immunized with 5 library peptides at a time, along with the A5 peptide, with all peptides combined and admixed with CPQ. After two intramuscular injections, splenocytes were collected, and then re-stimulated with each of the synthetic micro-library peptides, individually. Production of IFN-γ was measured and peptide immunogenicity was determined relative to the A5 peptide, which served as in internal control that could induce strong Ag-specific CD8^+ T cell responses.\nFor Ag screening, multivalent vaccine composed of peptide with the same MHC-I haplotypes (H-2L^d, H-2D^d, or H-2K^d) and the internal A5 peptide were admixed with CPQ. After immunization, only ˜10% of MHC-I binding peptides induced T cells in splenocytes that produced IFN-γ with peptide re-stimulation, and none were nearly as effective as A5 (FIG. 16B). The most highly immunogenic peptides only produced about a quarter of the level of IFN-γ relative to A5. […] It is also feasible that immunization with higher antigen doses of single individual peptides could have induced stronger immunogenic responses, although this would decrease the in vivo peptide micro-library screening throughput.\nIFN-γ ELISA: 2.5×10^5 splenocytes were seeded in a 96 wells plate and stimulated with 10 μg/mL antigens for 72 hr. 50 μL of supernatant was collected from each well and subjected to Interferon gamma ELISA (Thermofisher; catalog: BMS606TEN) according to manufacturer protocol."}}, "note": "Counter-ions that a name gives are not always drawn.", "data": [{"compound": "3His-AYTTQREEL (HHHAYTTQREEL; N-terminal 3His tag; Renca_2)", "values": [{"measurement": "Lysis of RENCA cells by T cells of vaccinated mice", "setting": "[1]", "value": "induced functional T cells that specific targets to RENCA cells"}, {"measurement": "IFN-γ producing CD8^+ T cells in the spleen after stimulation with individual peptide", "setting": "[2]", "value": "around 2%"}, {"measurement": "Tumor growth, single peptide vaccine", "setting": "[3]", "value": "inhibited tumor growth"}]}, {"compound": "3His-GYHESGHAI (HHHGYHESGHAI; N-terminal 3His tag; Renca_8)", "values": [{"measurement": "IFN-γ producing CD8^+ T cells in the spleen after stimulation with individual peptide", "setting": "[2]", "value": "~5", "unit": "%"}]}, {"compound": "CN(C)CCCN1c2ccccc2Sc2ccc(Cl)cc21", "note": "[chlorpromazine, Chlorpromazine hydrochloride]", "values": [{"measurement": "A5 peptide uptake by macrophages in the presence of inhibitor", "setting": "[4]", "value": "significantly less"}]}, {"compound": "C=C1[C@@H](C)[C@H]2[C@H](Cc3ccccc3)NC(=O)[C@]23OC(=O)/C=C/[C@H](O)CCC[C@@H](C)C/C=C/[C@H]3[C@@H]1O", "note": "[cytochalasin B]", "values": [{"measurement": "A5 peptide uptake by macrophages in the presence of inhibitor", "setting": "[4]", "value": "significantly less"}]}, {"compound": "Eml5G44R: 9-mer neoantigen peptide; tagged forms CT71 and 3his-CT71 (VYFVAGVRV)", "values": [{"measurement": "Lung nodules", "setting": "[5]", "value": "no significant difference"}]}, {"compound": "H3-RAHYNIVTF (HHHRAHYNIVTF; H3 N-terminal flank; E749-57)", "values": [{"measurement": "IFN-γ producing cells of CD8+ T cells over background after peptide re-stimulation of PBMCs", "setting": "[6]", "value": "higher percentage"}, {"measurement": "Tumor-free survival maintained", "setting": "[7]; 500 ng peptide with CPQ", "value": "at least 60 days"}, {"measurement": "Tumor growth after TC-1 challenge, single peptide with CPQ", "setting": "[7]; 500 ng peptide", "value": "inhibited tumor growth"}]}, {"compound": "H3-STHVDIRTL (HHHSTHVDIRTL; H3 N-terminal flank; E771-79)", "values": [{"measurement": "IFN-γ producing cells of CD8+ T cells over background after peptide re-stimulation of PBMCs", "setting": "[6]", "value": "higher percentage"}]}, {"compound": "H3-TLHEYMLDL (HHHTLHEYMLDL; H3 N-terminal flank; E76-14)", "values": [{"measurement": "IFN-γ producing cells of CD8+ T cells over background after peptide re-stimulation of PBMCs", "setting": "[6]", "value": "higher percentage"}]}, {"compound": "H6-WGAWLSGAL-ERR (HHHHHHWGAWLSGALERR; CT42)", "values": [{"measurement": "Experimental rank", "setting": "[8]", "value": 28}]}, {"compound": "H6-YGKGVNFYL-ERR (HHHHHHYGKGVNFYLERR; CT50)", "values": [{"measurement": "Experimental rank", "setting": "[8]", "value": 68}]}, {"compound": "H6-YVYEIYMTF-ERR (HHHHHHYVYEIYMTFERR; CT98)", "values": [{"measurement": "Experimental rank", "setting": "[8]", "value": 9}]}, {"compound": "H6-YYESDEFTV-ERR (HHHHHHYYESDEFTVERR; CT65)", "values": [{"measurement": "Experimental rank", "setting": "[8]", "value": 17}]}, {"compound": "H6-YYMRDVIAI-ERR (HHHHHHYYMRDVIAIERR; CT33)", "values": [{"measurement": "Experimental rank", "setting": "[8]", "value": 96}]}, {"compound": "Tmem5S71N: 9-mer neoantigen peptide; tagged forms CT96 and 3his-CT96 (VVEANWTML) (HHHVVEANWTML; N-terminal 3His tag; 3his-CT96/Tmem5S71N)", "values": [{"measurement": "Lung nodules", "setting": "[5]", "value": "no significant difference"}]}]}
